According to the NIST ThermoML archive (doi:10.1016/j.jct.2016.10.023):

Assay: xn = mol fraction of the nth substance listed
Conditions: Constant-volume piezometry

CCCCC [pentane] + CCCO
Conditions	mass density [kg/m3]
563.15 K, 15195 kPa, Fluid (supercritical or subcritical phases), x1 = 0.9	353.41
563.15 K, 15944 kPa, Fluid (supercritical or subcritical phases), x1 = 0.8	361.2
563.15 K, 20883 kPa, Fluid (supercritical or subcritical phases), x1 = 0.2	469.34
563.15 K, 22608 kPa, Fluid (supercritical or subcritical phases), x1 = 0.9	406.44
563.15 K, 23762 kPa, Fluid (supercritical or subcritical phases), x1 = 0.8	417.33
563.15 K, 29039 kPa, Fluid (supercritical or subcritical phases), x1 = 0.2	508.42
563.15 K, 36842 kPa, Fluid (supercritical or subcritical phases), x1 = 0.8	465.69
563.15 K, 41493 kPa, Fluid (supercritical or subcritical phases), x1 = 0.2	545.72
573.15 K, 1455 kPa, Gas, x1 = 0.8	22.47
573.15 K, 1761 kPa, Gas, x1 = 0.2	24.87
573.15 K, 2249 kPa, Gas, x1 = 0.8	36.6
573.15 K, 3350 kPa, Gas, x1 = 0.8	58.27
573.15 K, 3774 kPa, Gas, x1 = 0.2	52.88
573.15 K, 4034 kPa, Fluid (supercritical or subcritical phases), x1 = 0.8	73.62
573.15 K, 4329 kPa, Fluid (supercritical or subcritical phases), x1 = 0.9	83.18
573.15 K, 5099 kPa, Fluid (supercritical or subcritical phases), x1 = 0.2	91.19
573.15 K, 5320 kPa, Fluid (supercritical or subcritical phases), x1 = 0.8	106.15
573.15 K, 5748 kPa, Fluid (supercritical or subcritical phases), x1 = 0.9	123.05
573.15 K, 5856 kPa, Fluid (supercritical or subcritical phases), x1 = 0.2	114.08
573.15 K, 6139 kPa, Fluid (supercritical or subcritical phases), x1 = 0.9	133.8
573.15 K, 6637 kPa, Fluid (supercritical or subcritical phases), x1 = 0.8	139.97
573.15 K, 6909 kPa, Fluid (supercritical or subcritical phases), x1 = 0.2	149.98
573.15 K, 7024 kPa, Fluid (supercritical or subcritical phases), x1 = 0.9	163.56
573.15 K, 7062 kPa, Fluid (supercritical or subcritical phases), x1 = 0.8	155.67
573.15 K, 7474 kPa, Fluid (supercritical or subcritical phases), x1 = 0.8	169.37
573.15 K, 7491 kPa, Fluid (supercritical or subcritical phases), x1 = 0.2	175.18
573.15 K, 7658 kPa, Fluid (supercritical or subcritical phases), x1 = 0.8	175.6
573.15 K, 7755 kPa, Fluid (supercritical or subcritical phases), x1 = 0.2	189.17
573.15 K, 7776 kPa, Fluid (supercritical or subcritical phases), x1 = 0.8	180.39
573.15 K, 7805 kPa, Fluid (supercritical or subcritical phases), x1 = 0.9	188.99
573.15 K, 8168 kPa, Fluid (supercritical or subcritical phases), x1 = 0.8	192.69
573.15 K, 8184 kPa, Fluid (supercritical or subcritical phases), x1 = 0.9	201.88
573.15 K, 8351 kPa, Fluid (supercritical or subcritical phases), x1 = 0.2	219.55
573.15 K, 8805 kPa, Fluid (supercritical or subcritical phases), x1 = 0.9	220.14
573.15 K, 8815 kPa, Fluid (supercritical or subcritical phases), x1 = 0.8	213.33
573.15 K, 8859 kPa, Fluid (supercritical or subcritical phases), x1 = 0.2	244.86
573.15 K, 9002 kPa, Fluid (supercritical or subcritical phases), x1 = 0.8	219.08
573.15 K, 9138 kPa, Fluid (supercritical or subcritical phases), x1 = 0.2	258.55
573.15 K, 9198 kPa, Fluid (supercritical or subcritical phases), x1 = 0.9	232.49
573.15 K, 9211 kPa, Fluid (supercritical or subcritical phases), x1 = 0.2	262.25
573.15 K, 9316 kPa, Fluid (supercritical or subcritical phases), x1 = 0.9	235.95
573.15 K, 9432 kPa, Fluid (supercritical or subcritical phases), x1 = 0.2	271.68
573.15 K, 9453 kPa, Fluid (supercritical or subcritical phases), x1 = 0.9	240.34
573.15 K, 9462 kPa, Fluid (supercritical or subcritical phases), x1 = 0.8	234.13
573.15 K, 9562 kPa, Fluid (supercritical or subcritical phases), x1 = 0.9	243.64
573.15 K, 9806 kPa, Fluid (supercritical or subcritical phases), x1 = 0.8	244.74
573.15 K, 9864 kPa, Fluid (supercritical or subcritical phases), x1 = 0.2	289.81
573.15 K, 10272 kPa, Fluid (supercritical or subcritical phases), x1 = 0.2	306.05
573.15 K, 10324 kPa, Fluid (supercritical or subcritical phases), x1 = 0.8	257.93
573.15 K, 10392 kPa, Fluid (supercritical or subcritical phases), x1 = 0.2	310.27
573.15 K, 10713 kPa, Fluid (supercritical or subcritical phases), x1 = 0.2	317.97
573.15 K, 10865 kPa, Fluid (supercritical or subcritical phases), x1 = 0.8	271.86
573.15 K, 11108 kPa, Fluid (supercritical or subcritical phases), x1 = 0.9	281.31
573.15 K, 11531 kPa, Fluid (supercritical or subcritical phases), x1 = 0.2	340.39
573.15 K, 11654 kPa, Fluid (supercritical or subcritical phases), x1 = 0.2	343.17
573.15 K, 11678 kPa, Fluid (supercritical or subcritical phases), x1 = 0.8	287.66
573.15 K, 12021 kPa, Fluid (supercritical or subcritical phases), x1 = 0.9	300.93
573.15 K, 12217 kPa, Fluid (supercritical or subcritical phases), x1 = 0.8	298.45
573.15 K, 12707 kPa, Fluid (supercritical or subcritical phases), x1 = 0.9	311.54
573.15 K, 13246 kPa, Fluid (supercritical or subcritical phases), x1 = 0.8	314.57
573.15 K, 13392 kPa, Fluid (supercritical or subcritical phases), x1 = 0.2	377.65
573.15 K, 13687 kPa, Fluid (supercritical or subcritical phases), x1 = 0.2	382.44
573.15 K, 14239 kPa, Fluid (supercritical or subcritical phases), x1 = 0.9	333.19
573.15 K, 14284 kPa, Fluid (supercritical or subcritical phases), x1 = 0.2	390.25
573.15 K, 14505 kPa, Fluid (supercritical or subcritical phases), x1 = 0.8	333.01
573.15 K, 15392 kPa, Fluid (supercritical or subcritical phases), x1 = 0.8	344.5
573.15 K, 16409 kPa, Fluid (supercritical or subcritical phases), x1 = 0.9	353.22
573.15 K, 16662 kPa, Fluid (supercritical or subcritical phases), x1 = 0.2	417.59
573.15 K, 17250 kPa, Fluid (supercritical or subcritical phases), x1 = 0.8	361.01
573.15 K, 23293 kPa, Fluid (supercritical or subcritical phases), x1 = 0.2	469.08
573.15 K, 24391 kPa, Fluid (supercritical or subcritical phases), x1 = 0.9	406.23
573.15 K, 25613 kPa, Fluid (supercritical or subcritical phases), x1 = 0.8	417.11
573.15 K, 32252 kPa, Fluid (supercritical or subcritical phases), x1 = 0.2	508.13
573.15 K, 39390 kPa, Fluid (supercritical or subcritical phases), x1 = 0.8	465.43
